Where “and” joins values, the source holds several entries; their conditions need not be identical. Identical values can stand only once. Like-named read-outs stand apart in the source and are kept apart here.
What was measured:
Wild-Type PLA2 = biological target: T1, Wild-Type PLA2 (Sus scrofa, UniProt P00592); assay: Decylsulfate binding to wild-type PLA2 (3W), Trp emission; set-up: species or system pig
T1 construct: made in house
Method: (§1) Fluorescence emission spectrum or time course of the intensity change from tryptophan or the resonance energy transfer probe TMA-DPH were measured in the ratio mode on SLM-Aminco AB2 in a 1 cm cuvette [31, 32] in 1.6 ml stirred buffer containing 1 or 2 μM PLA2 in 10 mM Tris, 5 mM CaCl2 and 20 mM NaCl at pH 8.0 and 24° C. The slit-widths were 4 nm with excitation at 280.
(§2) For example, as summarized in Table 3, the main effect of the presence of bile salt is on the Trp-signal intensities rather than the dissociation constant for decylsulfate.

PLA2 W3F/R6W mutant = biological target: T2, PLA2 W3F/R6W mutant (Sus scrofa, UniProt P00592, R28W/W25F); assay: Decylsulfate binding to W3F/R6W mutant PLA2 (6W), Trp emission; set-up: species or system pig
T2 construct: made in house
Method: as §1, §2

human pancreatic IB PLA2 = biological target: T3, human pancreatic IB PLA2 (Homo sapiens, UniProt P04054); assay: Rate-lowering of hydrolysis of DMPC + 0.05 mole fraction cholate vesicles by human pancreatic PLA2; type: biochemical; settings: 0.03 mole fraction; DMPC + 0.05 mole fraction cholate
T3 construct: gift of Dr. Suren Tatulian (Orlando, Fla.)
From the text: (§3) Independent support for selective binding of the rate lowering compounds to a regulatory site on PLA2 comes from the rate-lowering effect of such compounds on the hydrolysis of DMPC vesicles containing 0.05 mole fraction cholate.
(§4) Scores of other compounds in guggul were not active.

pig pancreatic IB PLA2 = biological target: T4, pig pancreatic IB PLA2 (Sus scrofa, UniProt P00592); assay: Rate-lowering of hydrolysis of DMPC + 0.05 mole fraction cholate vesicles by pig pancreatic PLA2; type: biochemical; settings: for Relative Rate-lowering (%) Activity, pPLA2: 0.03 mole fraction, DMPC + 0.05 mole fraction cholate
T4 construct: made in house
From the text: as §3, §4

[1] = reported in literature [54-56]; cited from earlier work
WT (wild type) pig PLA2 = biological target: T5, WT (wild type) pig PLA2 (Sus scrofa, UniProt P00592); assay: PLA2 catalyzed hydrolysis of sonicated DMPC vesicles with added bile salt (pH-stat); type: biochemical; settings: DMPC vesicles, pancreatic PLA2
T5 construct: made in house
Method: Aqueous dispersion of phospholipid was sonicated in a bath type sonicator. Virtually transparent suspension was annealed for at least 4 hours at room temperature before use. Reaction progress for the PLA2 catalyzed hydrolysis of sonicated DMPC (1 mM) vesicles was measured by pH-stat titration (Radiometer) with 1 mM 2-aminopropanediol in 4 ml reaction buffer containing 5 mM CaCl2 for DMPC (or 0.5 mM for DMPM), 1 mM NaCl, […] atmosphere. Reaction was initiated by adding 0.1 μg enzyme in 1-10 μl solution. The pH stat method was also used for monitoring the rate of hydrolysis of DMPM (0.4 mM) vesicles in the presence of polymyxin [27-29], or of the mixed-micelles of POPC with bile salts in 1:2 ratio [13, 30].
Delay before the onset of the stationary phase of the PLA2 catalyzed reaction progress for the hydrolysis of zwitterionic phospholipids has been extensively characterized. […] The apparent rates in FIG. 3 were obtained from the initial slopes of such reaction progress during which <5% of the total substrate is hydrolyzed.
The CMC of the bile salts used in this study range between 0.8 to 5 mM.

T3 sequence (P04054 23-148): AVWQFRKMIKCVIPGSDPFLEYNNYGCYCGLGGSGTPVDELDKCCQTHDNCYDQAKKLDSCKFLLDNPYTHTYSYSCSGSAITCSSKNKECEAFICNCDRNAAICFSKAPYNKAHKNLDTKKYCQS
T4 sequence (P00592 23-146): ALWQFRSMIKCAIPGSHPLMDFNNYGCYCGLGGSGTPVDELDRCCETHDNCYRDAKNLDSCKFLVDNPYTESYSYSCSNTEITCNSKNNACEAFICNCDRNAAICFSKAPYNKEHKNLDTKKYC
T1 sequence (P00592 23-146): as above
T2 sequence (P00592 23-146 W25F/R28W): as the sequence (P00592 23-146) above, with W3F, R6W counted along it
T5 sequence (P00592 23-146): as the sequence (P00592 23-146) above

For `CCCCCCCCCCOS(=O)(=O)O` [Decylsulfate], the a1 decylsulfate binding (Wild-Type PLA2; 3W + 0.2 mM TCDOC) was −0.03, the a2 decylsulfate binding (Wild-Type PLA2; 3W + 0.2 mM TCDOC) was −0.07 and the n2 decylsulfate binding (Wild-Type PLA2; 3W + 0.2 mM TCDOC) was 6. It also gave a Kd (Wild-Type PLA2; 3W + 0.2 mM TCDOC, read-out: K2^# decylsulfate binding) of 540 µM, an a1 decylsulfate binding (Wild-Type PLA2; 3W + Chol (0.2 mM cholate)) of 0.10 and a n1 decylsulfate binding (Wild-Type PLA2; 3W + Chol (0.2 mM cholate)) of 1.5. The Kd (Wild-Type PLA2; 3W + Chol (0.2 mM cholate), read-out: K1^# decylsulfate binding) was 50 µM, the a1 decylsulfate binding (Wild-Type PLA2; 3W, no additive) was 0.26 and the a2 decylsulfate binding (Wild-Type PLA2; 3W, no additive) was 0.56. For the same compound, the n1 decylsulfate binding (Wild-Type PLA2; 3W, no additive) was 1.8 and 1.7, the n2 decylsulfate binding (Wild-Type PLA2; 3W, no additive) was 8 and the Kd (Wild-Type PLA2; 3W, no additive, read-out: K1^# decylsulfate binding) was 60 µM. For the same compound, the Kd (Wild-Type PLA2; 3W, no additive, read-out: K2^# decylsulfate binding) was 650 µM, the a1 decylsulfate binding (PLA2 W3F/R6W mutant; 6W) was −0.07 and the a2 decylsulfate binding (PLA2 W3F/R6W mutant; 6W) was −0.36. It also gave a n1 decylsulfate binding (PLA2 W3F/R6W mutant; 6W) of 2.7, a n2 decylsulfate binding (PLA2 W3F/R6W mutant; 6W) of 2.5 and an a1 decylsulfate binding (PLA2 W3F/R6W mutant; 6W + 0.2 mM TCDOC) of −0.09. For the same compound, the a2 decylsulfate binding (PLA2 W3F/R6W mutant; 6W + 0.2 mM TCDOC) was −1.1, the n2 decylsulfate binding (PLA2 W3F/R6W mutant; 6W + 0.2 mM TCDOC) was 2.0 and the Kd (PLA2 W3F/R6W mutant; 6W + 0.2 mM TCDOC, read-out: K2^# decylsulfate binding) was 650 µM. The Kd (PLA2 W3F/R6W mutant; 6W, read-out: K1^# decylsulfate binding) was 50 µM and the Kd (PLA2 W3F/R6W mutant; 6W, read-out: K2^# decylsulfate binding) was 510 µM.
In the case of `O=C1[C@H](CC[C@H](O)c2ccc(F)cc2)[C@@H](c2ccc(O)cc2)N1c1ccc(F)cc1` [Ezetimibe], the “Relative Rate-lowering (%) Activity, hPLA2” value (human pancreatic IB PLA2) is reported as 5%, the “Relative Rate-lowering (%) Activity, pPLA2” value (pig pancreatic IB PLA2) is reported as 30% and the “relative effectiveness in lowering the rate with pig pancreatic PLA2” value (pig pancreatic IB PLA2; DMPC vesicles containing 0.05 mole fraction cholate, FIG. 6) is reported as “more effective”. The reported side effects [1] was “hepatotoxicity, cholestatic hepatitis, acute autoimmune hepatitis, myopathy, and modulation of monocytic raft assembly”.
With `C[C@H](CCC(=O)NCC(=O)O)[C@H]1CC[C@H]2[C@@H]3CC[C@@H]4C[C@H](O)CC[C@]4(C)[C@H]3C[C@H](O)[C@]12C` [GDOC, glycodeoxycholate] the “effect of bile salt on the rate of hydrolysis (monophasic/biphasic)” value (WT (wild type) pig PLA2) was “biphasic effect”.
With `CC=C1C(O)C[C@H]2[C@@H]3CCC4=CC(=O)CC[C@]4(C)[C@H]3CC[C@]12C` (some centres unmarked) [Gugguloster-3-one-16-ol] the “Relative Rate-lowering (%) Activity, hPLA2” value (human pancreatic IB PLA2) was 56% and the “Relative Rate-lowering (%) Activity, pPLA2” value (pig pancreatic IB PLA2) was 90%.
In the case of `C/C=C1\C(=O)C[C@H]2[C@@H]3CCC4=CC(=O)CC[C@]4(C)[C@H]3CC[C@]12C` [Guggulosterone], the “Relative Rate-lowering (%) Activity, hPLA2” value (human pancreatic IB PLA2) is reported as 53% and the “Relative Rate-lowering (%) Activity, pPLA2” value (pig pancreatic IB PLA2) is reported as 85%.

Reference: US20080139520A1, “Altering cholesterol and fat uptake by novel allosteric inhibitors of pancreatic phospholipase A2” (priority 2006, published 2008)
